Measurements as given in the NIST ThermoML archive (doi:10.1021/acs.jced.5b00597).
Where “and” joins values, the source holds several entries; their conditions need not be identical. Identical values can stand only once.

Assay: molar heat capacity at constant pressure
Details: Liquid, Flow calorimetry

FC(F)CC(F)(F)F [1,1,1,3,3-pentafluoropropane]
Details	molar heat capacity at constant pressure
277.89 K, 518.3 kPa	170.11 J/K/mol
277.9 K, 519 kPa	171.31 J/K/mol
282.87 K, 509.6 kPa	171.72 J/K/mol
282.87 K, 511 kPa	172.65 J/K/mol
287.9 K, 513.9 kPa	173.46 J/K/mol
287.92 K, 512.5 kPa	173.46 J/K/mol and 171.85 J/K/mol
292.91 K, 518.1 kPa	179.09 J/K/mol
297.89 K, 514.6 kPa	177.61 J/K/mol and 177.21 J/K/mol
302.89 K, 517.2 kPa	178.42 J/K/mol
302.9 K, 518 kPa	179.09 J/K/mol
307.87 K, 519.5 kPa	181.23 J/K/mol
307.88 K, 504.1 kPa	181.1 J/K/mol
307.88 K, 514.4 kPa	182.17 J/K/mol [middle of 4 runs]
307.88 K, 808.1 kPa	181.5 J/K/mol
307.89 K, 517.9 kPa	182.71 J/K/mol
307.89 K, 518.2 kPa	181.77 J/K/mol
307.89 K, 522.2 kPa	181.63 J/K/mol
307.92 K, 415.8 kPa	180.7 J/K/mol
307.93 K, 520.4 kPa	182.71 J/K/mol
312.89 K, 514.5 kPa	181.77 J/K/mol
313.89 K, 520.4 kPa	180.96 J/K/mol
317.9 K, 522.2 kPa	183.24 J/K/mol
317.9 K, 522.6 kPa	181.9 J/K/mol
322.94 K, 518.4 kPa	185.66 J/K/mol
322.95 K, 517.7 kPa	184.85 J/K/mol and 184.58 J/K/mol
327.96 K, 806.4 kPa	187.13 J/K/mol
327.97 K, 808.9 kPa	185.92 J/K/mol
332.97 K, 815 kPa	189.41 J/K/mol
332.97 K, 816.5 kPa	187.8 J/K/mol
337.98 K, 810.3 kPa	190.62 J/K/mol
342.96 K, 817.2 kPa	192.22 J/K/mol
342.99 K, 813.6 kPa	192.49 J/K/mol
